According to patent EP0561237A2, “Enantiomer, (-)-N-(2-ethoxyphenyl)-N'-(1,2,2-trimethylpropyl)-2-nitromethene-1,1-diamine, process for its preparation and its use” (BAYER AG, priority 1992, dated 1993):
Where two headings read alike, the source gives them in different places. Values belong to the molecule of their own block, whether it stands above or below them.

Experiments:
Gefäßmuskulatur = details: described in DE 32 32 462; cited from earlier work
Neuronen = assay: Effect (hyperpolarising activity) on neurons; type: cell-based, Ratten
[1] = test system: MIPP-N1E-115-Neuroblastomlinie; assay: Hyperpolarising activity in neuroblastoma cell line; type: cell-based; details: for hyperpolarisierende Wirkung: MIPP-N1E-115 neuroblastoma line
A10-Zellen = assay: Activity on vascular tissue (A10 cells); type: cell-based; details: read-out: IC₅₀
ATP-abhängige K-Kanäle = assay: Glyburide sensitivity of the hyperpolarising effect; type: cell-based; details: with glyburide
[2] = test system: Zellinie des glatten Muskels; assay: Activity in a smooth muscle cell line; type: cell-based
[3] = test system: Neuronen vom Typ der Pyramidenzellen aus dem Hippocampus; assay: Neuroprotection on single neurons of the central nervous system; type: cell-based, Ratten; details: single neurons from rat CNS; inhibition of raised calcium during long-term depolarisation

Compound: CCOc1ccccc1NC(=C[N+](=O)[O-])NC(C)C(C)(C)C (racemic) [racemische Gemisch, N-(2-Ethoxyphenyl)-N'-(1,2,2-trimethylpropyl)-2-nitroethen-1,1-diamin]
Wirkung auf die Gefäßmuskulatur (Gefäßmuskulatur): eine Wirkung auf die Gefäßmuskulatur ausübt

EC50 (Neuronen; Neuron, in neurons, read-out: EC₅₀-Wert): 500 nM
IC50 (A10-Zellen; listed as (+)-Enantiomer): 15 nM
Compound: CCOc1ccccc1NC(=C[N+](=O)[O-])NC(C)C(C)(C)C (single isomer, unassigned; (+)) [Beispiel 2, (+)-N-(2-Ethoxyphenyl)-N'-(1,2,2-trimethylpropyl)-2-nitroethen-1,1-diamin]
Blockierung der Wirkung des (-)-Enantiomers auf Neuronen (Neuronen; (+)-enantiomer 1 µM against effect of 5 pM (-)-enantiomer): blockiert
Konzentration, bei der wirksam, als Vielfaches der Konzentration des (-)-Enantiomers (Neuronen; multiple of the 5 pM concentration of the (-)-enantiomer in neurons): > 10 000 -fach
hyperpolarisierende Wirkung ([1]; listed as (+)-Enantiomer): nicht auf das (+)-Enantiomer anspricht
hyperpolarisierende Wirkung, Blockierbarkeit durch Glyburide (ATP-abhängige K-Kanäle; listed as (+)-Enantiomer): durch Glyburide inhibierbares Hyperpolarisierungsmittel

IC50 (Neuronen; Neuron, in neurons, read-out: IC₅₀-Wert): 0.005 nM
EC50 ([1]; Neuroblastoma cell, newly found hyperpolarising activity not blocked by glyburide, read-out: EC₅₀): < 0.01 nM
IC50 (A10-Zellen; listed as (-)-Enantiomer): 250 nM
Compound: CCOc1ccccc1NC(=C[N+](=O)[O-])NC(C)C(C)(C)C (single isomer, unassigned; (-)) [Beispiel 1, (-)-N-(2-Ethoxyphenyl)-N'-(1,2,2-trimethylpropyl)-2-nitroethen-1,1-diamin]
hyperpolarisierende Wirkung ([1]; listed as (-)-Enantiomer): wirksam
Wirksamkeit [2]: unwirksam
Neuroprotektion [3]: bemerkenswerte Neuroprotektion
hyperpolarisierende Wirkung, Blockierbarkeit durch Glyburide (ATP-abhängige K-Kanäle; listed as (-)-Enantiomer): durch Glyburide nicht blockiert
